Test results: article PMC11678782, “The Antioxidant and Anti-Inflammatory Activities of the Methanolic Extract, Fractions, and Isolated Compounds from Eriosema montanum Baker f. (Fabaceae)” (Molecules, 2024)
In brackets after ≈: the same amount, converted by molar mass.

Experiments:
[1] = ABTS radical scavenging assay; details: 5 min, 734 nm
Experimental: Three in vitro antioxidant assays, namely, 2,2′-azinobis-(3-ethylbenzothiazoline-6-sulfonic acid (ABTS), 2,2′-diphenyl-1-picrylhydrazyl (DPPH), and ferric ion reducing antioxidant power (FRAP), were used to determine the antioxidant activity according to methods previously reported. Ascorbic acid (0 to 200 μg/mL) was used as positive control in these experiments, and Formula (1) below allowed us to evaluate the percentage of radical scavenging capacity. The inhibitory concentration (IC50) values were evaluated by plotting a nonlinear graph of percentage radical scavenging capacity versus logarithm of tested concentrations. Scavenging capacity (%) = [(A0 − A1)/A0] × 100(1) where A0 is absorbance of negative control, and A1 is absorbance of extract with ABTS^•+ radical cation.
Specifically, 2.45 mM of potassium persulfate and 7 mM of ABTS solution were dissolved in methanol and combined to create the ABTS^•+ radical cation, which was stored at 25 °C for a minimum of 16 h. At 734 nm, the absorbance of the generated ABTS^•+ was measured using a SpectraMax iD3 multi-mode microplate reader (Molecular Devices, San Jose, CA, USA) and calibrated to 0.70 ± 0.02. After carefully diluting 40 μL of EMME (1 mg/mL) with methanol and adding 160 μL of (ABTS^•+) radical cation, the 96-well microtiter plate was left to sit at 25 °C in the dark for five minutes. Using a SpectraMax iD3 multi-mode microplate reader, the absorbance values were measured at 734 nm against the blank (extract plus methanol without ABTS^•+). A nonlinear curve representing the percentage of ABTS^•+ scavenging capacity vs. a logarithm of tested concentrations was then plotted to determine the inhibitory concentration (IC50) values.
(§1) The IC50 values were calculated for each biological experiment using the nonlinear regression curve of the % inhibitory activity versus the logarithm (log10) of the various tested concentrations using GraphPad Prism 6.0 software (GraphPad Software, Inc., San Diego, CA, USA). The data are shown as mean ⁱ SEM (standard error of the mean) values, and all biological experiments were conducted in triplicate (n = 3). The statistical analysis was conducted using GraphPad Prism 6.0 software (GraphPad Software, Inc., San Diego, CA, USA). One-way analysis of variance (ANOVA) was used to compare the data across the tested samples and/or controls, and Student–Newman–Keuls or Dunnett’s tests were then performed. A p-value of less than 0.05 indicated a significant difference in the results.

soybeans 15-LOX = molecular target: T1, soybeans 15-LOX (Glycine max, UniProt P08170); assay: 15-lipoxygenase enzyme inhibitory assay (FOX); type: biochemical, soybean; details: linoleic acid substrate, FOX reagent, 560 nm; read-out: IC50 15-LOX (converted)
T1 construct: purchased Merck, Darmstadt, Germany
T1 sequence (P08170 1-839): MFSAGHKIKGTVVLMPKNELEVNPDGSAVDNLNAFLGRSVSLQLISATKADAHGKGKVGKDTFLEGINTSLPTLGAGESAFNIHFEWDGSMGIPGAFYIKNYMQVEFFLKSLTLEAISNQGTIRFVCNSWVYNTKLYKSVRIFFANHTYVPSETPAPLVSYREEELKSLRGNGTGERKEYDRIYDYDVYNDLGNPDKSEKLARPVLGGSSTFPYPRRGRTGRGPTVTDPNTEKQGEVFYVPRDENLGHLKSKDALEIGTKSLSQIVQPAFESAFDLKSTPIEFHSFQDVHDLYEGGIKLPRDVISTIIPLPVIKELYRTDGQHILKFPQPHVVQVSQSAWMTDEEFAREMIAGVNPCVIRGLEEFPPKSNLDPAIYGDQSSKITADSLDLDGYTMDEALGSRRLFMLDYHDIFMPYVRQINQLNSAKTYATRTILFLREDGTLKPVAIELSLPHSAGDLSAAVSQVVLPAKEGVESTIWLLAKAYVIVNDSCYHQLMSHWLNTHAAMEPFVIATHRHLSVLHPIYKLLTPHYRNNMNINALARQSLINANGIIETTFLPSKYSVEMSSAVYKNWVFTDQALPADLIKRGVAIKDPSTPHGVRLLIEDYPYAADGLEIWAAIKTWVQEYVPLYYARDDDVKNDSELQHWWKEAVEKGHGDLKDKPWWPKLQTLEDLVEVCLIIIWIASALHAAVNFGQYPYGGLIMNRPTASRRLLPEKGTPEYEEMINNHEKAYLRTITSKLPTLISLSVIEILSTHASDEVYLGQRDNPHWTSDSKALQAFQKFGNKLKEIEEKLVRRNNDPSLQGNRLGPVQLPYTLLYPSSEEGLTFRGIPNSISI
Experimental: The method developed by Pinto et al. was used to determine the effect of the tested samples on 15-LOX inhibitory activity, with slight modifications to the 96-well microtitre plate format. Using 20 µL of tested samples at varying concentrations (3.90 to 500 µg/mL), the soybeans 15-LOX (Merck, Darmstadt, Germany) (40 µL, 200 UI/mL) were incubated at 25 °C for 5 min. The plate was then incubated at 25 °C for 20 min in the dark; after, 40 µL of linoleic acid (final concentration, 140 μM) produced in Tris-HCl buffer (50 mM, pH 7.4) was added. A total of 100 µL of the FOX reagent—sulfuric acid (30 mM), xylenol orange (100 μM), and ferrous II) sulfate (100 μM) mixed in methanol/water (9:1)—was added to terminate the test. A SpectraMax iD3 multi-mode microplate reader (Molecular Devices, San Jose, CA, USA) was used to measure the absorbance at 560 nm following 30 min of incubation at 25 °C in the dark. Gallic acid (0.78 to 100 µg/mL) was employed as the usual inhibitor of 15-LOX, while DMSO at 5% (v/v) served as the negative control. With the exception of adding the substrate after the FOX reagent, the blanks were prepared exactly like the tested samples. Formula (2) below was used to compute the 15-LOX inhibitory activity. 15 LOX inhibitory activity (%) = 100 − [(A0 − A1) − (A2 − A1)] × 100(2) where A0 is absorbance of test samples, A1 is absorbance of blank, and A2 is absorbance of negative control (DMSO 5%).
as §1

[2] = design: method as in PMID 12510840, PMID 22997529; details: ONOO−, DPPH•, ABTS•+; cited from earlier work

CCCCCCCCCCCCCCCC [Compound 1, n-hexadecane]
IC50 ABTS [1]: >100 µg/mL | IC50 (soybeans 15-LOX): > 883 µM

CCCCCCCCCCCCCCCCCCCCCCCO [Compound 3, tricosan-1-ol]
IC50 ABTS [1]: >100 µg/mL | IC50 (soybeans 15-LOX): > 587 µM

O=c1c2c(O)cc(O)cc2oc2oc3cc(O)ccc3c12 [Compound 4, lupinalbin A]
IC50 ABTS [1]: >100 µg/mL | IC50 (soybeans 15-LOX): > 704 µM

O=c1c(-c2ccc(O)cc2)coc2cc(O[C@@H]3O[C@H](CO)[C@@H](O)[C@H](O)[C@H]3O)cc(O)c12 [Compound 5, genistin]
IC50 ABTS [1]: 91.02 ± 1.33 µg/mL (≈ 211 µM) | IC50 ABTS ([1]; listed as genistin): 99.89 µg/mL (≈ 231 µM) | Antioxidant properties via scavenging activity [2]: moderate antioxidant properties | IC50 (soybeans 15-LOX): 414 µM

CO[C@H]1[C@H](O)[C@@H](O)[C@@H](O)[C@H](O)[C@@H]1O [Compound 6, D-pinitol]
IC50 ABTS [1]: >100 µg/mL | IC50 (soybeans 15-LOX): > 1030 µM

CC[C@H](/C=C/[C@@H](C)[C@H]1CC[C@H]2[C@@H]3CC=C4C[C@@H](O[C@@H]5O[C@H](CO)[C@@H](O)[C@H](O)[C@H]5O)CC[C@]4(C)[C@H]3CC[C@]12C)C(C)C [Compound 7, stigmasterol glucoside]
IC50 ABTS [1]: >100 µg/mL | IC50 (soybeans 15-LOX): > 348 µM
